Measurements as given in patent US20050037450A1, “Novel targets for lithium therapy” (Duke University, priority 2002, published 2005).
“And” between values parts separate entries of the source, which are not always exact repeats. Equal entries are not always repeated. Where two headings read alike, the source gives them in different places.

How the values were obtained:
[1] = test system: intracellular PAP in met3Δ cells; format: cell-based, S. cerevisiae
Protocol: (§1) Yeast were grown in CM/ura^− containing 2% galactose to mid-log phase. The cultures were washed extensively and resuspended in the CM/ura^−/met^− media with the noted inclusions. PAP was measured using the ligand binding assay described in Experimental Procedures. Intracellular PAP concentrations were normalized to the amount of soluble protein extracted from the cultures.
(§2) For the assay of intracellular PAP concentrations, appropriate yeast strains were grown in CM/ura^− to mid-log phase (OD600=1.0). The cells were centrifuged and washed extensively in sterile water. The cells were resuspended in CM/ura^−/met^− containing methionine (20 μg/ml), lithium, or chlorate as appropriate. The cultures were incubated with shaking at 30° C. At various time points, 2 ml of culture was removed and centrifuged. The cells were washed with 1 ml of water. 250 μl was centrifuged and resuspended in 200 μl K-lysis buffer. 200 μl of glass beads were added, and the cells were disrupted by vigorous bead beating. The amount of soluble protein in this extract was determined using a Bradford dye-binding assay (BioRad, Hercules, Calif., United States of America) with bovine serum albumin as a standard. The remaining 750 μl of washed cells was spun down and resuspended in 250 μl of 2 N HClO4. This was incubated at 4° C. for 20 min, when 250 μl of 1.8 N KOH, 0.4 N KHCO3 were added to neutralize and precipitate the HClO4. The extract was centrifuged at 4° C. to remove the debris, and the supernatant was lyophilized using a rotary evaporator. The dried extracts were frozen at −80° C. for no more than one week prior to use. Extracts were reconstituted in 100 μL of 200 mM HEPES, pH 7.5 and again centrifuged to remove debris. 5′ [^32P] 3′, 5′ PAP was created as described (Spiegelberg, 1999). The GST-PST assay was performed by mixing 10 μL of standard PAP, treated as above, or 10 μL of sample diluted approximately 1:1000 in K-lysis buffer, with 10 μL of radiolabeled PAP (approximately 10,000 CPM). Eighty microliters of a reaction mix containing 100 mM HEPES, pH 7.0, 5 mM DTT, 0.2 mg/ml BSA, and 1 μg of GST-PST were added to start the binding reaction. The reactions were allowed to equilibrate for at least one hour at room temperature. Following incubation, 20 μl of a 50:50 slurry of glutathione sepharose in K-lysis buffer was added. The tubes were incubated with gentle mixing for 10 min at room temperature. The protein with bound PAP was pulled down by centrifugation for 2 min at room temperature. 80 μl of the supernatant, containing free PAP, was removed to a scintillation vial and 200 μl of K-lysis buffer was added to wash the resin. The tubes were centrifuged again and the 200 μl wash was transferred to the original scintillation vials. Radioactivity was determined by adding 5 ml of […] ECONO2™ scintillation fluid (Fisher Scientific, Hampton, N.H., United States of America) and counted in a liquid scintillation counter. The counts were converted to percent isotope bound, and a standard curve was prepared by plotting percent bound vs. the logarithm of the PAP concentration. This standard curve was used to back-calculate the PAP concentration in the unknown samples.
(§3) The GST-PST binding assay was used to determine relative intracellular PAP concentrations in yeast strains grown under various conditions. The PAP concentration determined in the binding assay was normalized to the total soluble protein in parallel extracts, and background was eliminated by reporting only the signal that was sensitive to in vitro degradation by purified recombinant Hal2p. The assay was characterized further by analyzing the intracellular PAP concentration of wild type yeast grown in the presence of lithium.

[2] = test system: intracellular PAP in met14Δ cells; format: cell-based, S. cerevisiae
Protocol: as §1, §2, §3

Wild type yeast = assay: Lithium inhibition of yeast growth (OD600), wild type; format: cell-based, S. cerevisiae; details: Saccharomyces cerevisiae
Protocol: FIG. 7 is a graph showing met3Δ and met14Δ strains are lithium resistant. Wild type, met3Δ, and met14Δ yeast were resuspended at 5×10^4/ml in CM/ura^− containing 2% dextrose and 1.25 μg/ml methionine. Growth at various concentrations of LiCl was measured after a 24 hr incubation at 30° C. The growth is plotted relative to growth in media lacking lithium.
FIG. 10 is a graph showing methionine supplementation induces lithium resistance. Wild type yeast were inoculated at 5×10^4 cells per ml into synthetic media with or without methionine containing the noted concentration of LiCl. Growth was assayed by spectrophotometry following 48 hrs of growth at 30° C.
Wild type yeast were grown in CM/ura^− containing 2% galactose to mid-log phase. The cultures were washed and resuspended at 5×10^5 cells/ml in CM/ura^−/met^− containing the noted lithium and chlorate concentrations. Following growth for 24 hr at 30° C., the cultures were resuspended, and growth was measured by determining the absorbance at λ=600 nm.
Since methionine effects transcriptional down regulation of the MET3 and MET14 gene products in wild type yeast, the relative lithium sensitivities of the met3Δ and met14Δ strains were assayed in growth media containing reduced methionine (1.25 μg/ml). The use of limited methionine allowed for the comparison of the relative sensitivity to lithium of yeast expressing (wild type) or lacking (met3Δ and met14Δ) PAPS synthetase activities.
The yeast system was used to determine if chlorate could be used to effect a relevant decrease in the accumulation of PAP in the presence of lithium. […] The decrease in PAP accumulation was physiologically relevant since chlorate produced a protective effect in the presence of lithium. […] When 25 mM NaClO3 is included in the culture medium, the growth inhibition is abated, with the IC50 increasing to approximately 80 mM LiCl (FIG. 11)

patients = details: cited from earlier work

Question: Which results are given for `[Li]` [lithium]?
Answer: Fold increase of PAP concentration ([1]; met3Δ expressing hPAPSS2, 100 mM lithium vs absence of lithium): ≥ 72.4 fold; Intracellular PAP concentration ([1]; met3Δ with empty vector, independent of methionine and lithium concentration, data not shown): less than 0.5 nmol PAP/mg soluble protein; Fold increase of PAP concentration ([2]; met14Δ expressing hPAPSS2, 100 mM lithium vs absence of lithium): ≥ 65.4 fold; Intracellular PAP concentration ([2]; met14Δ expressing hPAPSS2, 100 mM lithium, eight hours): ~32.8 nmol/mg and 32.7 nmol/mg; Intracellular PAP concentration ([2]; met14Δ with empty vector, independent of methionine and lithium concentration, data not shown): less than 0.5 nmol PAP/mg soluble protein; IC50 (Wild type yeast; CM/ura− 2% dextrose, 1.25 μg/ml methionine, 24 hr at 30° C., growth relative to media lacking lithium, read-out: IC50 of lithium for growth inhibition): ~40 mM; IC50 (Wild type yeast; CM/ura−/met−, 24 hr at 30° C., 25 mM NaClO3 in culture medium, read-out: IC50 of LiCl for growth inhibition with chlorate): ~80 mM; IC50 (Wild type yeast; synthetic media without methionine, 48 hrs at 30° C., read-out: IC50 for lithium in met− media): ~40 mM; Occurrence of acquired nephrogenic diabetes insipidus (NDI) (patients; patients taking the drug): 20-50%; Patients reporting clinically significant polyuria (patients; patients undergoing lithium therapy): Up to 20%
